# According to patent publication US10206909B2, “3-(1H-pyrrolo[2,3-B]pyridin-2-yl)-1H-pyrazolo[4,3-B]pyridines and therapeutic uses thereof” (Samumed, LLC, priority 2015, dated 2019):
# Experiments:
# Format in all cases: cell-based
# [1] = tested on: IL-6 (THP-1 cells); assay: IL-6 inhibition in LPS-stimulated THP-1 cells (HTRF); conditions: Homo sapiens; for EC50: THP-1 cells, LPS 500 ng/mL, 22 hours, IL6 HTRF; for inhibition at 10 µM: given where EC50 >10 μM, THP-1, IL6, read-out: percent inhibition at 10 μM
# Description: Human Monocyte Cell Culture: Human monocyte cell line (THP-1 cells; Catalog # TIB-202, ATCC, Manassas, Va.) were cultured in Roswell Park Memorial Institute (RPMI) 1640 Medium (Catalog #21870-100, Buffalo, N.Y.) with 1% L-glutamine, 1% HEPES, 1% Sodium Pyruvate, 2% Sodium Bicarbonate supplemented with 100 units/mL penicillin, 50 μg/mL streptomycin, 2-mercaptoethanol (0.05 mM) [basal medium] and 10% fetal bovine serum (Catalog #16140089, Life Technologies, Carlsbad, Calif.) at 37° C. and 5% CO2.
# Compound Screening: THP-1 cells were cultured in basal media with 1% FBS for 24 hours before the start of the assay. Each compound was dissolved in DMSO as a 10 mM stock and used to prepare compound source plates. Serial dilution (1:3, 10-point dose-response curves starting from 10 μM) and compound transfer was performed using the ECHO 550 (Labcyte, Sunnyvale, Calif.) into 384-well white low volume assay plates (Greiner Bio-One) with appropriate DMSO backfill for a final DMSO concentration of 0.1%. THP-1 cells were plated at 5000 cells/well in the 384-well plates and incubated at 37° C. for 2 h. 500 ng/mL of LPS was added after 2 hours and cells were incubated for another 22 hours at 37° C. Plates were spun in a centrifuge for 1 minute at […] and a mixture of anti-IL6 XL665, and anti-IL6 Cryptate diluted in reconstitution buffer (Cisbio Inc.) was added to each well. Following incubation for 3 hrs at room temperature, Homogeneous Time-Resolved Fluorescence (HTRF) was measured using the Envision (Perkin Elmer) at 665 nm and […]. The ratio of fluorescence at 665 nm to 620 nm was used as a readout for IL6 quantification. All samples were processed in duplicate. Readings were normalized to DMSO treated cells and normalized activities were utilized for EC50 calculations using the dose-response log (inhibitor) vs. response —variable slope (four parameters) nonlinear regression feature available in GraphPad Prism 5.0 (or Dotmatics). For EC50 of >10 μM, the percent inhibition at 10 μM is provided.
# [2] = tested on: SW480 colon cancer cells; assay: Cell viability assay (CellTiter-Blue); conditions: Homo sapiens; for EC50: 96 h, SW480 cell viability, four days, CellTiter-Blue; for inhibition at 10 µM: given where EC50 >10 μM, SW480 viability, read-out: percent inhibition at 10 μM
# Description: Representative compounds were screened using the following assay procedure to assess the effect on cell viability as described below.
# Each compound was dissolved in DMSO as a 10 mM stock and used to prepare compound source plates. Serial dilution (1:3, 8-point dose-response curves from 10 μM to 0.0045 μM) and compound transfer was performed using the ECHO 550 (Labcyte, Sunnyvale, Calif.) into 96-well clear bottom, black-walled plates (Corning-Costar).
# Approximately 2×10^3 SW480 colon cancer cells were seeded into each well and allowed to incubate in the presence or absence of compound for four days at 37° C./5% CO2. Eight replicates of DMSO-treated cells served as controls and cells treated with compound were performed in duplicate.
# After incubation, 20 μL of CellTiter-Blue (Promega) was added to each well allowed to incubate for approximately 3 hours. This reagent was a buffered solution which contains resazurin, metabolically active cells were able to reduce rezarurin (blue) into resorufin (pink) which was highly fluorescent. This measured fluorescence was used as a readout for cell viability.
# After incubation, the plates were read at Ex 560 nm Em 590 nm (Cytation 3, BioTek). Dose-response curves were generated and EC50 concentration values were calculated using non-linear regression curve fit in the GraphPad Prism (San Diego, Calif.) or Dotmatics' Studies Software (Bishops Stortford, UK). For EC50 of >10 μM, the percent inhibition at 10 μM is provided.
# [3] = tested on: Wnt activity (Sp5-Luc reporter, SW480 colon carcinoma cells); assay: Wnt activity screening assay: Sp5-Luc reporter gene assay in SW480 cells; conditions: Homo sapiens; for EC50: SW480 cells, overnight incubation; for inhibition at 10 µM: given where EC50 >10 μM, SW480, read-out: percent inhibition at 10 μM
# Source text: The screening assay for Wnt activity is described as follows. Reporter cell lines can be generated by stably transducing cancer cell lines (e.g., colon cancer) or primary cells (e.g., IEC-6 intestinal cells) with a lentiviral construct that includes a Wnt-responsive promoter driving expression of the firefly luciferase gene.
# SW480 colon carcinoma cells were transduced with a lentiviral vector expressing luciferase with a human Sp5 promoter consisting of a sequence of eight TCF/LEF binding sites. SW480 cells stably expressing the Sp5-Luc reporter gene and a hygromycin resistance gene were selected by treatment with 150 μg/mL of hygromycin for 7 days. These stably transduced SW480 cells were expanded in cell culture and used for all further screening activities. Each compound was dissolved in DMSO as a 10 mM stock and used to prepare compound source plates. Serial dilution (1:3, 10-point dose-response curves starting from 10 μM) and compound transfer was performed using the ECHO 550 (Labcyte, Sunnyvale, Calif.) into 384-well white solid bottom assay plates (Greiner Bio-One) with appropriate DMSO backfill for a final DMSO concentration of 0.1%. For Sp5-Luc reporter gene assays, the cells were plated at 4,000 cells/well in 384-well plates with medium containing 1% fetal bovine serum and incubated overnight at 37° C. and 5% CO2. Following incubation, 20 μl of BrightGlo luminescence reagent (Promega) was added to each well of the 384-well assay plates. The plates were placed on an orbital shaker for 2 min and then luminescence was quantified using the Envision (Perkin Elmer) plate reader. Readings were normalized to DMSO only treated cells, and normalized activities were utilized for EC50 calculations using the dose-response log (inhibitor) vs. response -variable slope (four parameters) nonlinear regression feature available in GraphPad Prism 5.0 (or Dotmatics). For EC50 of >10 μM, the percent inhibition at 10 μM is provided.
SMILES,EC50 [1],EC50 [2],EC50 [3],inhibition at 10 µM [1],inhibition at 10 µM [2],inhibition at 10 µM [3]
"Fc1ccc(-c2ccnc3[nH]c(-c4n[nH]c5ccc(-c6cncnc6)nc45)cc23)cc1 [Compound 55, 3-(4-(4-Fluorophenyl)-1H-pyrrolo[2,3-b]pyridin-2-yl)-5-(pyrimidin-5-yl)-1H-pyrazolo[4,3-b]pyridine]",> 10 µM,> 10 µM,> 10 µM,14.1%,20.5%,32%
"c1cncc(-c2ccnc3[nH]c(-c4n[nH]c5ccc(-c6ccncc6)nc45)cc23)c1 [Compound 102, 3-(4-(Pyridin-3-yl)-1H-pyrrolo[2,3-b]pyridin-2-yl)-5-(pyridin-4-yl)-1H-pyrazolo[4,3-b]pyridine]",> 10 µM,> 10 µM,> 10 µM,23.9%,10%,9.5%
"c1cncc(-c2ccc3[nH]nc(-c4cc5c(-c6cccnc6)ccnc5[nH]4)c3n2)c1 [Compound 88, 5-(Pyridin-3-yl)-3-(4-(pyridin-3-yl)-1H-pyrrolo[2,3-b]pyridin-2-yl)-1H-pyrazolo[4,3-b]pyridine]",> 10 µM,> 10 µM,> 10 µM,38.7%,31.2%,10.1%
"CN(C)CCNc1cc(F)cc(-c2ccnc3[nH]c(-c4n[nH]c5ccc(-c6cncc(CNCC7CCCC7)c6)nc45)cc23)c1 [Compound 473, N^1-(3-(2-(5-(5-(((Cyclopentylmethyl)amino)methyl)pyridin-3-yl)-1H-pyrazolo[4,3-b]pyridin-3-yl)-1H-pyrrolo[2,3-b]pyridin-4-yl)-5-fluorophenyl)-N^2,N^2-dimethylethane-1,2-diamine]",6.75 µM,2.26 µM,4.67 µM,–,–,–
"CN(C)CCOc1cncc(-c2ccc3[nH]nc(-c4cc5c(-c6cccnc6)ccnc5[nH]4)c3n2)c1 [Compound 563, N,N-Dimethyl-2-((5-(3-(4-(pyridin-3-yl)-1H-pyrrolo[2,3-b]pyridin-2-yl)-1H-pyrazolo[4,3-b]pyridin-5-yl)pyridin-3-yl)oxy)ethan-1-amine]",> 10 µM,> 10 µM,> 10 µM,20.3%,0%,7.2%
"CN(C)Cc1cncc(-c2ccc3[nH]nc(-c4cc5c(-c6ccccc6F)ccnc5[nH]4)c3n2)c1 [Compound 69, 1-(5-(3-(4-(2-Fluorophenyl)-1H-pyrrolo[2,3-b]pyridin-2-yl)-1H-pyrazolo [4,3-b]pyridin-5-yl)pyridin-3-yl)-N,N-dimethylmethanamine]",1.08 µM,> 10 µM,> 10 µM,–,33.5%,8.3%

# Second part, led by results:
EC50 [1],EC50 [2],EC50 [3],SMILES,inhibition at 10 µM [1],inhibition at 10 µM [2],inhibition at 10 µM [3]
> 10 µM,2 µM,3.91 µM,"CN1CCN(c2ccnc3[nH]c(-c4n[nH]c5ccc(-c6cncc(NC(=O)CC(C)(C)C)c6)nc45)cc23)CC1 [Compound 240, 3,3-Dimethyl-N-(5-(3-(4-(4-methylpiperazin-1-yl)-1H-pyrrolo[2,3-b]pyridin-2-yl)-1H-pyrazolo[4,3-b]pyridin-5-yl)pyridin-3-yl)butanamide]",43.5%,–,–
> 10 µM,> 10 µM,0.31 µM,"Oc1cncc(-c2ccc3[nH]nc(-c4cc5c(-c6ccc(F)cc6)ccnc5[nH]4)c3n2)c1 [Compound 533, 5-(3-(4-(4-Fluorophenyl)-1H-pyrrolo[2,3-b]pyridin-2-yl)-1H-pyrazolo[4,3-b]pyridin-5-yl)pyridin-3-ol]",37.1%,15.4%,–
6.95 µM,> 10 µM,5.27 µM,"FC1(F)CCN(Cc2cncc(-c3ccc4[nH]nc(-c5cc6c(N7CCCCC7)ccnc6[nH]5)c4n3)c2)C1 [Compound 194, 5-(5-((3,3-Difluoropyrrolidin-1-yl)methyl)pyridin-3-yl)-3-(4-(piperidin-1-yl)-1H-pyrrolo[2,3-b]pyridin-2-yl)-1H-pyrazolo[4,3-b]pyridine]",–,28.3%,–
> 10 µM,> 10 µM,> 10 µM,"Fc1cccc(-c2ccnc3[nH]c(-c4n[nH]c5ccc(-c6cncc(CN7CCCCC7)c6)nc45)cc23)c1 [Compound 15, 3-(4-(3-Fluorophenyl)-1H-pyrrolo[2,3-b]pyridin-2-yl)-5-(5-(piperidin-1-ylmethyl)pyridin-3-yl)-1H-pyrazolo[4,3-b]pyridine]",41%,29.9%,8%
> 10 µM,> 10 µM,> 10 µM,"c1ccc(-c2ccc3[nH]nc(-c4cc5c(N6CCCCC6)ccnc5[nH]4)c3n2)nc1 [Compound 196, 3-(4-(Piperidin-1-yl)-1H-pyrrolo[2,3-b]pyridin-2-yl)-5-(pyridin-2-yl)-1H-pyrazolo[4,3-b]pyridine]",46.5%,2.4%,9.8%
3.43 µM,1.44 µM,3.83 µM,"CN1CCN(c2ccnc3[nH]c(-c4n[nH]c5ccc(-c6cncc(NC(=O)C(C)(C)C)c6)nc45)cc23)CC1 [Compound 232, N-(5-(3-(4-(4-Methylpiperazin-1-yl)-1H-pyrrolo[2,3-b]pyridin-2-yl)-1H-pyrazolo[4,3-b]pyridin-5-yl)pyridin-3-yl)pivalamide]",–,–,–
> 10 µM,2.81 µM,3.78 µM,"CCNCc1cncc(-c2ccc3[nH]nc(-c4cc5cccnc5[nH]4)c3n2)c1 [Compound 258, N-((5-(3-(1H-Pyrrolo[2,3-b]pyridin-2-yl)-1H-pyrazolo[4,3-b]pyridin-5-yl)pyridin-3-yl)methyl)ethanamine]",4.6%,–,–
0.967 µM,> 10 µM,2.36 µM,"Cc1ccncc1-c1ccc2[nH]nc(-c3cc4c(N5CCCCC5)ccnc4[nH]3)c2n1 [Compound 173, 5-(4-Methylpyridin-3-yl)-3-(4-(piperidin-1-yl)-1H-pyrrolo[2,3-b]pyridin-2-yl)-1H-pyrazolo[4,3-b]pyridine]",–,49.2%,–
